Data reported in patent publication US20070116745A1, “Spermicidal preparations and uses thereof” (CONVE LTD., priority 2004, published 2007).

Columns and labels:
sperm = assay: Modified Sander-Cramer assay (complete sperm immobilization); assay type: cell-based; conditions: solvent 0.9% NaCl pH 5, 30-second coincubation, n=6
Method: The above formulations were used in a series of (i) Sander-Cramer assays (assessment of complete sperm immobilization during a 30-second, compound-sperm coincubation); and (ii) cervical mucous (CM) penetration assays (compound is pre-incubated with a CM microcolumn for 30 minutes, after which sperm are introduced into the system; sperm migration through the mucous is compared to that of control).

[1] = Solubility in assay solvent (Table 1); assay type: physicochemical; conditions: in 0.9% NaCl pH 5 at initial conc

nonoxynol-9
HIGHEST SPERMICIDAL DILUTION (1/X) (sperm; initial conc 1 mg/ml): 8.0 ± 0.0 1/X
M.E.C. (Minimum Effective Concentration) (sperm): 0.125 ± 0.000 mg/mL
SOLUBILITY [1]: OK - clear
